Where two headings read alike, the source gives them in different places.
Tests used:
LNCaP cells = assay: MTT cell proliferation assay, LNCaP; format: cell-based; details: 48 h treatment in FBS-free medium, read-out: IC50 Value (Mean ± SD mM) LNCaP
Procedure: (§1) PC-3, LNCaP, RWPE-1, HepG2, A549, and PANC-1 cells were purchased from the National Collection of Authenticated Cell Cultures (Shanghai, China). […] All the above cell cultures were supplied with 10% fetal bovine serum and 1% penicillin-streptomycin. RWPE-1 cells were cultured in keratinocyte serum-free medium (K-SFM, Gibco, New York, NY, USA) supplemented with 50 mg/L bovine pituitary extract and 5 μg/L epidermal growth factor (EGF). All cell lines were grown in a humidified atmosphere of 5% CO2 at 37 °C.
(§2) Cells were seeded in 100 μL complete medium in a 96-well plate, at a density of 10,000 cells/well for LNCaP and 5000 cells/well for other cells. Cells were pre-incubated for 24 h to allow for adherence before removal of complete medium and treatment with various concentrations of compounds in fetal bovine serum (FBS)-free medium for 48 h. After treatment, 20 μL/well MTT (5 mg/mL) was added and incubated for 3–4 h at 37 °C, and then 100 μL/well DMSO was added for MTT assay. The plate was shaken on an orbital shaker for 10 min. Absorbance was measured using a microplate reader at 492 nm for the MTT assay (performed in triplicates). Cell viability was normalized to control. Half inhibitory concentration (IC50) was calculated by SPSS Statistics 17.0. […] The experiments were independently repeated two to three times.

PC-3 cells = assay: MTT cell proliferation assay, PC-3; format: cell-based, human; details: read-out: IC50 Value (Mean ± SD mM) PC-3
Procedure: as §1, §2

RWPE-1 cells = assay: MTT cell proliferation assay, RWPE-1; format: cell-based; details: for IC50: MTT, 48 h treatment in FBS-free medium, read-out: IC50 Value (Mean ± SD mM) RWPE-1
Procedure: as §1, §2

PC-3 and LNCaP cells = assay: MTT cell proliferation assay, PCa cell lines; format: cell-based; details: Homo sapiens; PC-3 and LNCaP; read-out: IC50 values on PCa cell lines
Procedure: (§3) PC-3, LNCaP, RWPE-1, HepG2, A549, and PANC-1 cells were purchased from the National Collection of Authenticated Cell Cultures (Shanghai, China). PC-3 and A549 cells were cultured in F-12K Nutrient Mixture (Gibco, New York, NY, USA), LNCaP in RPMI 1640 (Gibco, New York, NY, USA), PANC-1 in Dulbecco’s Modified Eagle Medium (DMEM, Gibco, New York, NY, USA), and HepG2 in minimal essential medium (MEM, Gibco, New York, NY, USA). All the above cell cultures were supplied with 10% fetal bovine serum and 1% penicillin-streptomycin. RWPE-1 cells were cultured in keratinocyte serum-free medium (K-SFM, Gibco, New York, NY, USA) supplemented with 50 mg/L bovine pituitary extract and 5 μg/L epidermal growth factor (EGF). All cell lines were grown in a humidified atmosphere of 5% CO2 at 37 °C.
(§4) Cells were seeded in 100 μL complete medium in a 96-well plate, at a density of 10,000 cells/well for LNCaP and 5000 cells/well for other cells. Cells were pre-incubated for 24 h to allow for adherence before removal of complete medium and treatment with various concentrations of compounds in fetal bovine serum (FBS)-free medium for 48 h. After treatment, 20 μL/well MTT (5 mg/mL) was added and incubated for 3–4 h at 37 °C, and then 100 μL/well DMSO was added for MTT assay. The plate was shaken on an orbital shaker for 10 min. Absorbance was measured using a microplate reader at 492 nm for the MTT assay (performed in triplicates). Cell viability was normalized to control. Half inhibitory concentration (IC50) was calculated by SPSS Statistics 17.0. The combination index (CI) isobologram equation was used for the quantitative determination of the interaction between two compounds [62]:(1) Combination index CI =CA,x/ICx,A+CB,x/ICx,B where CA,x and CB,x are compound concentrations that […], and ICx,A and ICx,B are compound concentrations that provide the same effect when being used in combination. The experiments were independently repeated two to three times.

[1] = test system: PC-3, LNCaP, RWPE-1, A549, PANC-1, and HepG2 cells; assay: MTT cell proliferation assay, all cell lines; format: cell-based
Procedure: as §3, §4

PANC-1 cells = assay: MTT cell proliferation assay, PANC-1; format: cell-based; details: read-out: IC50 Value (Mean ± SD mM) PANC-1
Procedure: as §1, §2

HepG2 cells = assay: MTT cell proliferation assay, HepG2; format: cell-based; details: read-out: IC50 Value (Mean ± SD mM) HepG2
Procedure: as §1, §2

A549 cells = assay: MTT cell proliferation assay, A549; format: cell-based; details: read-out: IC50 Value (Mean ± SD mM) A549
Procedure: as §1, §2

ovarian cancer = test system: ovarian cancer; set-up: method as in PMID 27121207; details: intraperitoneal injections of 10 mg/kg; cited from earlier work
PC-3 xenograft tumors = assay: PC-3 xenograft mouse model; format: in vivo; details: 200 mg/kg
Procedure: Five-week-old male BALB/c nude mice were purchased from Charles River Laboratories (Beijing, China) and raised in a temperature and humidity-controlled environment (25 ± 2 °C, 50% ± 10% humidity) with a standard 12 h light-dark cycle with food and water in cages under germ-free conditions (SCXK2021-0006). All procedures involving animals and their care were approved by the Institutional Animal Care and Use Committee of the Ocean University of China in accordance with institutional and National Institutes of Health guidelines (OUC-SMP-2022-01-01). PC-3 cells (4 × 10^6 dissolved in 150 μL PBS) were injected subcutaneously into the armpit area of each mouse. For the first treatment group, when tumors reached 50 mm^3, 80 mg/kg of tryptamine dissolved in normal saline with 0.1% formic acid was administered intraperitoneally once every other day for 32 days (n = 6). […] The control groups were administrated with the vehicle. The tumor volume (mm^3) was calculated based on the formula:(2) Tumor volume (mm^3)=length×width^2/2

[2] = Homo sapiens, PC-3, 48 h treatment in FBS-free medium
[3] = Homo sapiens, PANC-1, 48 h treatment in FBS-free medium
[4] = Homo sapiens, HepG2, 48 h treatment in FBS-free medium
[5] = Homo sapiens, A549, 48 h treatment in FBS-free medium
[6] = 48 h treatment in FBS-free medium
[7] = all cell lines tested, read-out: IC50 values for all six cell lines tested

N[C@@H](Cc1c[nH]c2ccc(O)cc12)C(=O)O [5-HTP, 5-hydroxytryptophan]
IC50 (LNCaP cells; Homo sapiens, LNCaP): 1.8 ± 0.17 mM
IC50 (PC-3 cells; [2]): 0.99 ± 0.04 mM
IC50 (RWPE-1 cells; Homo sapiens, RWPE-1): 0.85 ± 0.05 mM

O=C(O)c1cccnc1C(=O)O [QA, quinolinic acid]
IC50 (LNCaP cells; Homo sapiens, LNCaP): 6.83 ± 0.42 mM
IC50 (PC-3 cells; [2]): 6 ± 1.32 mM
IC50 (PC-3 and LNCaP cells): > 5000 µM
IC50 (RWPE-1 cells; Homo sapiens, RWPE-1): 3.2 ± 0.16 mM
IC50 ([1]; discussion summary, all cancer cell lines tested, read-out: IC50 values in all cancer cell lines tested): > 3000 µM

NCCc1ccc(O)cc1 [Tyramine, reference compound]
IC50 (PANC-1 cells; [3]): 0.77 ± 0.04 mM
IC50 (LNCaP cells; Homo sapiens, LNCaP): 1.71 ± 0.12 mM
IC50 (PC-3 cells; [2]): 1.53 ± 0.04 mM
IC50 (HepG2 cells; [4]): 1.53 ± 0.05 mM
IC50 (RWPE-1 cells; Homo sapiens, RWPE-1): 2.99 ± 0.08 mM
IC50 (A549 cells; [5]): 3.18 ± 0.24 mM

COc1cc([C@@H]2c3cc4c(cc3[C@@H](O[C@@H]3O[C@@H]5CO[C@@H](C)O[C@H]5[C@H](O)[C@H]3O)[C@H]3COC(=O)[C@H]23)OCO4)cc(OC)c1O [Etoposide, reference compound]
IC50 (PANC-1 cells; [3]): 0.042 ± 0.001 mM
IC50 (LNCaP cells; Homo sapiens, LNCaP): 0.032 ± 0.001 mM
IC50 (PC-3 cells; [2]): 0.064 ± 0.001 mM
IC50 (HepG2 cells; [4]): 0.03 ± 0.001 mM
IC50 (RWPE-1 cells; Homo sapiens, RWPE-1): 0.016 ± 0.001 mM
IC50 (A549 cells; [5]): 0.041 ± 0.002 mM

NCCc1ccccc1 [β-phenylethylamine, reference compound]
IC50 (PANC-1 cells; [6]): 1.47 ± 0.07 mM
IC50 (LNCaP cells): 0.69 ± 0.06 mM
IC50 (PC-3 cells; [6]): 0.44 ± 0.01 mM
IC50 (HepG2 cells; [6]): 1.01 ± 0.03 mM
IC50 (RWPE-1 cells): 2.51 ± 0.19 mM
IC50 (A549 cells; [6]): 0.72 ± 0.06 mM

NCCc1c[nH]c2ccc(O)cc12 [5-HT, 5-hydroxytryptamine]
IC50 (PANC-1 cells; [3]): 1.34 ± 0.13 mM
IC50 (LNCaP cells; Homo sapiens, LNCaP): 1.12 ± 0.04 mM
IC50 (PC-3 cells; [2]): 1.07 ± 0.03 mM
IC50 (HepG2 cells; [4]): 1.05 ± 0.17 mM
tumor weight increase (ovarian cancer): ~60%
IC50 (RWPE-1 cells; Homo sapiens, RWPE-1): 1.66 ± 0.01 mM
IC50 (A549 cells; [5]): 1.89 ± 0.09 mM
IC50 [1, 7]: ≥ 1000 µM

Nc1c(O)cccc1C(=O)O [3-HAA, 3-hydroxyanthranilic acid]
IC50 (PANC-1 cells; [3]): 0.41 ± 0.01 mM
tumor size (PC-3 xenograft tumors; intraperitoneal administration): No difference in tumor size
tumor size (PC-3 xenograft tumors; intratumoral administration): No difference in tumor size
IC50 (LNCaP cells; Homo sapiens, LNCaP): 0.65 ± 0.06 mM
IC50 (PC-3 cells; [2]): 0.9 ± 0.04 mM
IC50 (HepG2 cells; [4]): 0.42 ± 0.02 mM
IC50 (RWPE-1 cells; Homo sapiens, RWPE-1): 0.38 ± 0.01 mM
Effect on proliferation of RWPE-1 cells (RWPE-1 cells; concentrations between 0.03 and 0.1 mM): promoted the proliferation
IC50 (A549 cells; [5]): 0.27 ± 0.01 mM
IC50 [1, 7]: ≤ 900 µM

Nc1c(O)cccc1C(=O)CC(N)C(=O)O (stereo not drawn) [3-HK, 3-hydroxykynurenine]
IC50 (PANC-1 cells; [6]): 0.25 ± 0.01 mM
IC50 (LNCaP cells): 0.29 ± 0.01 mM
IC50 (PC-3 cells; [6]): 0.55 ± 0.01 mM
IC50 (HepG2 cells; [6]): 0.25 ± 0.01 mM
IC50 (RWPE-1 cells): 0.36 ± 0.01 mM
IC50 (A549 cells; [6]): 0.29 ± 0.01 mM
IC50 [1, 7]: ≤ 900 µM
